Results published in patent US8748436B2, “Carboxylic acid derivatives having a 2,5,7-substituted oxazolopyrimidine ring” (Sanofi, priority 2010, dated 2014).

These compounds were tested against T1, human Edg-1 receptor (Homo sapiens, UniProt P21453) (assay: GTP-γ-S assay using human Edg-1 receptors (scintillation proximity assay, CHO Flp-In cell membrane preparation)). Conditions: test compound at 10 μM; high control 10 μM S1P regarded as 100% activation; [35S]GTP-γ-S binding, triplicate; read-out: % Activation (Edg-1 receptor activation in percent of the activation by 10 μM S1P).
T1 construct: FLAG (N); expressed in transfected cells; membrane preparation
Type: biochemical
Outline: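 Scintillation proximity GTP-γ-S binding measured receptor activation. Membranes came from a stably transfected CHO Flp-In line constitutively overexpressing N-terminally FLAG-tagged human Edg-1. Membranes were prepared by hypotonic lysis (5 mM HEPES, 1 mM EDTA, protease inhibitors) at 4 °C and Dounce homogenisation.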

T1 sequence (P21453 whole entry): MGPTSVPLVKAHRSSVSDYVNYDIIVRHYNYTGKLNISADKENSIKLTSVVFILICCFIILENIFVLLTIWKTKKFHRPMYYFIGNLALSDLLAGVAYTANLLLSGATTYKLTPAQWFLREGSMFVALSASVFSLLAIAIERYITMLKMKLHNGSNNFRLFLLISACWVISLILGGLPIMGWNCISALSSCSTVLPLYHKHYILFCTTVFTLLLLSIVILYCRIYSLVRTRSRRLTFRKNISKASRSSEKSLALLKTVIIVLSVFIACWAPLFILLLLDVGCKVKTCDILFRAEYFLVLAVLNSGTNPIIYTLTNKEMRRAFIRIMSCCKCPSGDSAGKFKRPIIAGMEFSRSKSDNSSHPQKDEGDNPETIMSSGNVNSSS

Row | activation at 10 µM [%] | SMILES
1 | 81 | CCCOc1nc(Oc2cccc(SC(F)(F)F)c2)nc2oc(-c3cc(C)c(OCC(=O)O)c(C)c3)nc12 [Example 76, {2,6-dimethyl-4-[7-propoxy-5-(3-trifluoromethylsulfanyl-phenoxy)-oxazolo[5,4-d]pyrimidin-2-yl]-phenoxy}-acetic acid]
2 | 77 | CCCOc1nc(Oc2cc(C(F)(F)F)ccc2Cl)nc2oc(-c3cc(C)c(OCC(=O)O)c(C)c3)nc12 [Example 77, {4-[5-(2-chloro-5-trifluoromethylphenoxy)-7-propoxy-oxazolo[5,4-d]pyrimidin-2-yl]-2,6-dimethyl-phenoxy}-acetic acid]
3 | 72 | CCCOc1nc(Oc2ccc(Cl)c(C(F)(F)F)c2)nc2oc(-c3cc(C)c(OCC(=O)O)c(C)c3)nc12 [Example 78, {4-[5-(4-chloro-3-trifluoromethylphenoxy)-7-propoxy-oxazolo[5,4-d]pyrimidin-2-yl]-2,6-dimethylphenoxy}-acetic acid]
4 | 82 | CCCOc1nc(Oc2cccc(C(F)(F)F)c2Cl)nc2oc(-c3cc(C)c(OCC(=O)O)c(C)c3)nc12 [Example 79, {4-[5-(2-chloro-3-trifluoromethylphenoxy)-7-propoxy-oxazolo[5,4-d]pyrimidin-2-yl]-2,6-dimethylphenoxy}-acetic acid]
